{
  "source": "ChEMBL document CHEMBL1145940",
  "about": "“Computer modeling of selective regions in the active site of nitric oxide synthases: implication for the design of isoform-selective inhibitors” (J Med Chem, 2003)",
  "key": {"[1]": {"experiment": "Inhibitory activity against Inducible nitric oxide synthase"}, "[2]": {"experiment": "Selectivity for neuronal over endothelial nitric oxide synthase"}, "[3]": {"experiment": "Inhibitory activity against neuronal nitric oxide synthase"}, "[4]": {"experiment": "Inhibitory activity against endothelial nitric oxide synthase (eNOS)"}},
  "note": "Peptide text beside a SMILES is read from it.",
  "data": [
    {"compound": "N/C(=N\\CCC[C@@H](NC(=O)[C@H](N)Cc1ccccc1)C(=O)O)N[N+](=O)[O-]", "note": "(HELM PEPTIDE1{[dF].[N=C(NCCC[C@@H](N[*:1])C(=O)O)N[N+](=O)[O-]]}$$$$V2.0)", "values": [
      {"measurement": "Ki", "setting": "[1]", "value": 13600, "unit": "µM"},
      {"measurement": "Selectivity", "setting": "[2]", "value": 5.3},
      {"measurement": "Ki", "setting": "[3]", "value": 17, "unit": "µM"},
      {"measurement": "Ki", "setting": "[4]", "value": 90, "unit": "µM"}
    ]},
    {"compound": "[H]/N=C(/NCCC[C@H](N)C(=O)N[C@H]1CNC(C(N)=O)C1)N[N+](=O)[O-]", "note": "(stereo partly drawn)", "values": [
      {"measurement": "Ki", "setting": "[1]", "value": 29.5, "unit": "µM"},
      {"measurement": "Ki", "setting": "[3]", "value": 0.074, "unit": "µM"}
    ]},
    {"compound": "NCc1cccc(NC[C@@H](N)CCC/N=C(\\N)N[N+](=O)[O-])c1", "values": [
      {"measurement": "Ki", "setting": "[1]", "value": 80, "unit": "µM"},
      {"measurement": "Ki", "setting": "[3]", "value": 0.21, "unit": "µM"},
      {"measurement": "Ki", "setting": "[4]", "value": 194, "unit": "µM"}
    ]},
    {"compound": "NC(=O)[C@@H](CCC/N=C(/N)N[N+](=O)[O-])NC(=O)[C@H](N)Cc1ccccc1", "values": [
      {"measurement": "Selectivity", "setting": "[2]", "value": 5.3},
      {"measurement": "Ki", "setting": "[3]", "value": 17, "unit": "µM"},
      {"measurement": "Ki", "setting": "[4]", "value": 90, "unit": "µM"}
    ]},
    {"compound": "COC(=O)[C@@H](CCCNC(=N)N[N+](=O)[O-])NC(=O)[C@H](N)Cc1ccccc1", "note": "(HELM PEPTIDE1{[dF].[N=C(NCCC[C@@H](N[*:1])C(=O)[*:2])N[N+](=O)[O-]].[CO[*:1]]}$$$$V2.0)", "values": [
      {"measurement": "Ki", "setting": "[1]", "value": 3600, "unit": "µM"},
      {"measurement": "Selectivity", "setting": "[2]", "value": 2.5},
      {"measurement": "Ki", "setting": "[3]", "value": 2, "unit": "µM"},
      {"measurement": "Ki", "setting": "[4]", "value": 5, "unit": "µM"}
    ]},
    {"compound": "NCCCNC[C@@H](N)CCC/N=C(\\N)N[N+](=O)[O-]", "values": [
      {"measurement": "Ki", "setting": "[1]", "value": 123, "unit": "µM"},
      {"measurement": "Ki", "setting": "[4]", "value": 411, "unit": "µM"}
    ]},
    {"compound": "NCCCC[C@@H](N)C(=O)N[C@H](CCC/N=C(/N)N[N+](=O)[O-])C(N)=O", "note": "(HELM PEPTIDE1{[dK].[N=C(NCCC[C@@H](N[*:1])C(=O)[*:2])N[N+](=O)[O-]].[am]}$$$$V2.0)", "values": [
      {"measurement": "Ki", "setting": "[1]", "value": 910, "unit": "µM"},
      {"measurement": "Ki", "setting": "[3]", "value": 0.89, "unit": "µM"},
      {"measurement": "Ki", "setting": "[4]", "value": 30, "unit": "µM"}
    ]},
    {"compound": "COC(=O)[C@@H](CCC/N=C(\\N)N[N+](=O)[O-])NC(=O)[C@@H](N)Cc1ccccc1", "note": "(HELM PEPTIDE1{F.[N=C(NCCC[C@@H](N[*:1])C(=O)[*:2])N[N+](=O)[O-]].[CO[*:1]]}$$$$V2.0)", "values": [
      {"measurement": "Ki", "setting": "[1]", "value": 7500, "unit": "µM"},
      {"measurement": "Selectivity", "setting": "[2]", "value": 1.7},
      {"measurement": "Ki", "setting": "[3]", "value": 90, "unit": "µM"},
      {"measurement": "Ki", "setting": "[4]", "value": 150, "unit": "µM"}
    ]},
    {"compound": "NCc1ccc(NC[C@@H](N)CCC/N=C(\\N)N[N+](=O)[O-])cc1", "values": [
      {"measurement": "Ki", "setting": "[1]", "value": 335, "unit": "µM"},
      {"measurement": "Selectivity", "setting": "[2]", "value": 299},
      {"measurement": "Ki", "setting": "[3]", "value": 1.37, "unit": "µM"},
      {"measurement": "Ki", "setting": "[4]", "value": 409, "unit": "µM"}
    ]},
    {"compound": "CCCCC[C@H]1NC(=N)C[C@H]1C", "values": [
      {"measurement": "Ki", "setting": "[1]", "value": 0.25, "unit": "µM"},
      {"measurement": "Ki", "setting": "[3]", "value": 3.2, "unit": "µM"},
      {"measurement": "Ki", "setting": "[4]", "value": 226, "unit": "µM"}
    ]},
    {"compound": "NCc1ccccc1NC[C@@H](N)CCC/N=C(\\N)N[N+](=O)[O-]", "values": [
      {"measurement": "Ki", "setting": "[1]", "value": 29.3, "unit": "µM"},
      {"measurement": "Selectivity", "setting": "[2]", "value": 7.17},
      {"measurement": "Ki", "setting": "[3]", "value": 5.55, "unit": "µM"},
      {"measurement": "Ki", "setting": "[4]", "value": 39.8, "unit": "µM"}
    ]},
    {"compound": "NCNC[C@@H](N)CCC/N=C(/N)N[N+](=O)[O-]", "values": [
      {"measurement": "Ki", "setting": "[1]", "value": 39, "unit": "µM"},
      {"measurement": "Selectivity", "setting": "[2]", "value": 2580},
      {"measurement": "Ki", "setting": "[3]", "value": 0.12, "unit": "µM"},
      {"measurement": "Ki", "setting": "[4]", "value": 314, "unit": "µM"}
    ]},
    {"compound": "N=C(NCCC[C@H](N)C(=O)N[C@@H]1CN[C@@H](C(N)=O)C1)N[N+](=O)[O-]", "values": [
      {"measurement": "Ki", "setting": "[1]", "value": 200, "unit": "µM"},
      {"measurement": "Ki", "setting": "[4]", "value": 110, "unit": "µM"}
    ]},
    {"compound": "NC[C@H](NC(=O)[C@@H](N)CCC/N=C(\\N)N[N+](=O)[O-])C(N)=O", "note": "(HELM PEPTIDE1{[N=C(NCCC[C@H](N)C(=O)[*:2])N[N+](=O)[O-]].[NC[C@H](N[*:1])C(=O)[*:2]].[am]}$$$$V2.0)", "values": [
      {"measurement": "Ki", "setting": "[1]", "value": 25, "unit": "µM"},
      {"measurement": "Ki", "setting": "[3]", "value": 0.31, "unit": "µM"},
      {"measurement": "Ki", "setting": "[4]", "value": 200, "unit": "µM"}
    ]},
    {"compound": "N/C(=N\\CCC[C@H](N)CNCc1cccnc1)N[N+](=O)[O-]", "values": [
      {"measurement": "Ki", "setting": "[1]", "value": 395, "unit": "µM"},
      {"measurement": "Selectivity", "setting": "[2]", "value": 254},
      {"measurement": "Ki", "setting": "[3]", "value": 0.76, "unit": "µM"},
      {"measurement": "Ki", "setting": "[4]", "value": 193, "unit": "µM"}
    ]},
    {"compound": "Cc1c(C)c2c(c(C)c1O)CC[C@@](C)(C(=O)C1CCC(c3ccc(NC(=N)c4cccs4)cc3)CC1)O2", "note": "(stereo partly drawn)", "values": [
      {"measurement": "Ki", "setting": "[1]", "value": "> 300", "unit": "µM"},
      {"measurement": "Ki", "setting": "[4]", "value": 110, "unit": "µM"}
    ]},
    {"compound": "NCCCC[C@H](N)C(=O)N[C@H](CCC/N=C(\\N)N[N+](=O)[O-])C(N)=O", "note": "(HELM PEPTIDE1{K.[N=C(NCCC[C@@H](N[*:1])C(=O)[*:2])N[N+](=O)[O-]].[am]}$$$$V2.0)", "values": [
      {"measurement": "Ki", "setting": "[1]", "value": 4700, "unit": "µM"},
      {"measurement": "Ki", "setting": "[3]", "value": 1.7, "unit": "µM"},
      {"measurement": "Ki", "setting": "[4]", "value": 229, "unit": "µM"}
    ]},
    {"compound": "NCCc1ccc(NC[C@@H](N)CCC/N=C(\\N)N[N+](=O)[O-])cc1", "values": [
      {"measurement": "Ki", "setting": "[3]", "value": 1.66, "unit": "µM"}
    ]},
    {"compound": "NC(=O)[C@H](N)NC(=O)[C@@H](N)CCC/N=C(/N)N[N+](=O)[O-]", "values": [
      {"measurement": "Ki", "setting": "[1]", "value": 61, "unit": "µM"},
      {"measurement": "Selectivity", "setting": "[2]", "value": 237},
      {"measurement": "Ki", "setting": "[3]", "value": 1.1, "unit": "µM"},
      {"measurement": "Ki", "setting": "[4]", "value": 261, "unit": "µM"}
    ]},
    {"compound": "N/C(=N/CCC[C@H](N)CNc1cccnc1)N[N+](=O)[O-]", "values": [
      {"measurement": "Ki", "setting": "[1]", "value": 141, "unit": "µM"},
      {"measurement": "Selectivity", "setting": "[2]", "value": 951},
      {"measurement": "Ki", "setting": "[3]", "value": 0.55, "unit": "µM"},
      {"measurement": "Ki", "setting": "[4]", "value": 523, "unit": "µM"}
    ]}
  ]
}
